SMILES strings stand for the structures. Where two headings read alike, the source gives them in different places.

The values below come from EP1061896B1, “COSMETIC METHOD OF TREATING SKIN” (UNILEVER PLC, priority 1998, dated 1999).

Data set [1] relates to PGE2. Nature of the data set: Fibroblast PGE2 assay, PMA-induced. Conditions: human skin fibroblasts, N=4. The data set is classed as cell-based. Here is the method: Intracellular adhesion molecules (ICAM) and PEG2 production by human skin fibroblasts can be induced by the inflammatory stimulus PMA (phorbal myristate acetate). PMA represents an external stressor which induces oxidative stress and inflammatory responses in cells. This model is used to model inflammation in vivo.
Primary human foreskin fibroblasts at passage 2 (P2) were seeded into 96-well plates at 10000 cells/well and maintained for 24 hours in an atmosphere of 5% carbon dioxide in Dulbeccos Modified Eagles Medium (DMEM) supplemented with 10% foetal calf serum. […] Phorbal myristate acetate (PMA) (Sigma) was added to the media and the cells incubated for a further 24 hours. […] The fibroblasts/media were then analysed as described below immediately or snap frozen in liquid nitrogen and stored at -70°C for future analysis. The cells were then counted and data from the dot-blot analysis subsequently standardised to cell number.
Prostaglandin E2 (PGE2) assay: Volumes of 50 µl culture medium were taken for PGE2 assay after gently shaking the culture plate. PGE2 levels in the medium were determined with a Biotrak PGE2 immunoassay kit (Amersham, UK). The assay is based on the competition between unlabelled PGE2 in the sample and a fixed quantity of horseradish peroxidase labelled PGE2 for a limited amount of fixed PGE2 specific antibody. Concentrations of unlabelled sample PGE2 are determined according to a standard curve which was obtained at the same time.

Data set [2] in a line: Cell viability assay by neutral red dye absorption in the pigmentation assay. The data set is classed as cell-based. The note with it: mouse, b16-f1 cells, n=4, read-out: Neutral Red Cell Viability % Control. Here is the method:
(§1) • * Cell maintenance B16-F1 mouse melanoma cells (American Type Culture Collection, Maryland, USA) were maintained in 75 cm^2 culture flasks in RPMI 1640 medium (ICN-Flow, cat. no. 12-60-54) supplemented with L-glutamine (4 mM) and 10% foetal bovine serum (FBS) at 37°C in a water saturated, 5% CO2 in air atmosphere. Cells were passaged twice weekly. • * Pigmentation Assay Subconfluent B16 cells were seeded in 96 well microtiter plates at a density of 5000 cells/well and cultured overnight in DMEM (Life Technologies, NY) containing 10% foetal bovine serum and 1% penicillin/streptomycin without phenol red at 37°C under 5% CO2. After 24 hours, the media was replaced with fresh media containing the test materials or vehicle controls. Cells were incubated for 72 hours at which time melanin was visible in the control wells. Next, the melanin containing media from each well was transferred to a clean 96 well plate and quantified by reading the absorbance at 530 nm using a microplate spectrophotometer (Dynatech MR5000) and correcting for the baseline absorption of fresh medium. As the corrected absorption is proportional to the melanin concentration the percentage pigmentation for a skin lightening test substance can be calculated as: % pigmentation = (OD530 test/OD530 ref) x 100% [formula] where OD530 test and OD530 ref indicate the average corrected absorption of the medium from the wells with the test substance and that of the medium from the wells without the test substance. The percentage inhibition caused by the test substance is then 100 - % pigmentation. • * Cell viability assay Melanin production may be reduced by inhibition of melanogenesis but it may also be affected by cytotoxicity or cell proliferation. To test whether this occurred cell viability was tested by neutral red dye absorption. Neutral red is a water soluble dye that passes through the intact plasma membrane and becomes concentrated in the lysosomes in intact cells. Total neutral red dye uptake is proportional to the number of viable cells in culture. Immediately following the removal of medium for melanin analysis from the microtitre wells, 200 µl fresh prewarmed neutral red dye (ex. Sigma, UK, Cat. Nr 2889) at 25 µg/ml medium was applied to the cells and incubated for 3 hours as for cell maintenance. Dye which had not been taken up by the cells was removed by inversion of the plate and tapping on abscrbent paper. The cells were washed with 200 µl PBS, which was then removed again. 100 µl solvent (50% H2O, 49% ethanol, 1% acetic acid) was added. After 20 minutes at ambient temperature each plate was shaken for 5 seconds on a microtitre plate shaker. The absorption was measured as described above.

Data set [3] relates to Keratinocytes. Nature of the data set: Keratinocyte SDS viability assay (Neutral Red method). It is filed as cell-based. The note with it: 24 hours, n=8. Here is the method:
(§2) After incubating for 24 hours the medium was removed and the viability determined by the Neutral Red method.

Data set [4] deals with Keratinocytes. Nature of the data set: Keratinocyte viability by neutral red uptake after the PGE2 assay. Conditions: 24 hours, at the concentrations tested (0.1 and 1 µM). It is filed as cell-based. Here is the method: as §2
The cells were then tested for viability by the neutral red up-take method described in example 2 above.

Data set [5] has as its system B16-F1 mouse melanoma cells. Nature of the data set: Pigmentation assay (melanin in media, absorbance at 530 nm). The data set is classed as cell-based. The note with it: 72 hours, n=4, read-out: Melanin in Media % Control. Here is the method: as §1
Data set [6] concerns PGE2. Nature of the data set: Keratinocyte PGE2 assay (basal release, enzyme-linked immunoassay). The data set is classed as cell-based. Conditions: 24 hours, unstimulated keratinocytes, n=4, Control 197.9. As for the experimental part: This was then replaced with KGM without hydrocortisone for 24-48 hours. No petroselinic acid was added to the control cells. […] At the end of the incubation the medium was harvested and assayed for the basal release of the pro-inflammatory PGE2 by enzyme-linked immuno assay using a commercial PGE2 kit (Amersham, Buckinghamshire, England).
The anti-inflammatory potential of the test compounds were assessed by the ability of the compounds to reduce the basal levels of secreted PGE2 as compared to the control. Statistical significance was determined using the Student's t-test.

A further data set concerns decorin. Nature of the data set: Immunohistochemical analysis of forearm skin biopsies after topical treatment: decorin expression. The data set is classed as in vivo, human. The note with it: compared with placebo forearm. The text has this: (§3) Two groups of women were recruited with identical or nearly identical degrees of mild to moderate photodamage on each outer forearm. They were supplied with 0.05% retinoic acid in a moisturising base (Retinova®) and also with a colour matched moisturising cream with similar sensory characteristics (Dermacare® lotion), but no active ingredients, as a placebo control. Each participant of the two groups applied the Retinova® to one outer forearm and placebo (Dermacare®) to the other outer forearm. Group 1 applied the products daily to their outer forearms for 14 weeks and the Group 2 applied the products to their outer forearms for 28 weeks. At the end of the studies two full thickness 4mm punch biopsies were taken from the treated areas of each forearm. Immunohistochemical analysis of the biopsy tissue taken from the participants was performed to identify the effect of retinoic acid treatment on the expression of the skin extracellular matrix components, decorin and procollagen-I, as compared with the placebo treated forearms. The following procedure was followed:
(§4) Antibody dilution buffer for wax sections was composed of Tris Buffered Saline (TBS), 3% bovine serum albumin (BSA), 0.05% Triton X-100 and 0.05% sodium azide. […]

The test system of the next data set is procollagen-I. Nature of the data set: Immunohistochemical analysis of forearm skin biopsies after topical treatment: procollagen-I expression. The data set is classed as in vivo, human. Conditions: compared with placebo forearm.
Description: as §3, §4

Where [7] appears, read: Group 1 after 14 weeks, 16 participants, 0.05% retinoic acid (Retinova®) daily on outer forearm.
The mark [8] stands for this setting: Group 2 after 28 weeks, 15 participants, 0.05% retinoic acid (Retinova®) on outer forearm.

For `CCCCCCCCCCCCCC(=O)O[C@@H]1[C@@H](C)[C@@]2(O)[C@@H](C=C(CO)C[C@]3(O)C(=O)C(C)=C[C@@H]23)[C@@H]2C(C)(C)[C@]12OC(C)=O` [PMA, phorbal myristate acetate, reference compound], in the data set with PGE2 [1] (PMA (10nM) alone, Control 32±6), the PGE2 was determined as 2371 ± 241 pg/mL.

As for `CCCCCCCCCCC/C=C\CCCCC(=O)O` [Petroselinic Acid, Petroselinic acid], the viability at 72 h was 105% in data set [2] (0.01%); 105% in data set [2] (0.013%); 103% in data set [2] (0.02%); 69.9% in data set [2] (0.04%); 1% in data set [2] (0.1%). The entries for the “Keratinocyte viability % of control Mean” value in the data set on Keratinocytes [3] (SDS 2 µg/ml + PA 0.1 µM), with Keratinocytes [3] (SDS 2 µg/ml + PA 1.0 µM) and in the data set on Keratinocytes [3] (SDS 2 µg/ml + PA 10 µM) were 94.5 % of control, 84.1 % of control and 85.8 % of control, respectively. The Cell viability result with Keratinocytes [4] is “not found to be adversely effected”. For the same compound, the PGE2 stood at 500 ± 12 pg/mL in the data set with PGE2 [1] (PMA (10nM) + PA 0.1uM), 486 ± 93 pg/mL with PGE2 [1] (PMA (10nM) + PA 1uM), 233 ± 139 pg/mL in the data set on PGE2 [1] (PMA (10nM) + PA 10uM) and 117 ± 39 pg/mL with PGE2 [1] (PMA (10nM) + PA 100uM). Moreover, the activity at 0.01 % in data set [5] (0.01%) was determined as 79.5%. In data set [5] (0.013%), the activity at 0.013 % is 40.4%. The activity at 0.02 % in data set [5] (0.02%) worked out at 55.3%. Also, the activity at 0.04 % in data set [5] (0.04%) turned out to be 3.9%. The activity at 0.1 % in data set [5] (0.1%) amounted to 19.3%. Also, the “Keratinocyte PGE2 Levels Mean” value came out at 150.1 pg/well in the data set with PGE2 [6] (PA 0.1 µM) and 117.8 pg/well with PGE2 [6] (PA 1 µM).

As to `CC1=C(/C=C/C(C)=C/C=C/C(C)=C/C(=O)O)C(C)(C)CCC1` [Retinoic Acid, retinoic acid], the “No. of Participants showing marked increase in expression of decorin” value with decorin (setting [7]) came out at 10; with decorin (setting [8]) it was 15. Moreover, the “No. of Participants showing marked increase in expression of procollagen-I” value in the data set on procollagen-I (setting [7]) is reported as 9; in the data set on procollagen-I (setting [8]), 10.

In the case of `CCCCCCCCCCCCOS(=O)(=O)[O-].[Na+]` [SDS, sodium dodecyl sulphate, reference compound], in the data set with Keratinocytes [3] (SDS 2 µg/ml alone (PA 0 µM)), the “Keratinocyte viability % of control Mean” value was 55.8 % of control.
